Laboratory results reported in US20130157953A1, “TREATMENT OF CARDIAC CONDITIONS” (Zealand Pharma A/S, priority 2010, published 2013).
Numbered stars: 1 amine (or outer) side, 2 acyl side, 3 side chain; on linkers, the order of the positions; unused ones are H or OH. Bridge positions count the residues as written; N and C are the ends. Square brackets hold non-standard residues; d marks the D form. Side chains are listed from the residue outwards. Ends that are not written are not given here. Peptide text beside a SMILES is read from it. * marks the point of attachment. γGlu = O=C(O)[C@H](CCC(=O)[*:2])N[*:1]; Palmitoyl = CCCCCCCCCCCCCCCC(=O)*; Aib = CC(C)(N)C(=O)O

Tests used:
[1] = tested on: anesthetized male Sprague-Dawley rats; assay: Inotropic effect in vivo in anaesthetized rats (stroke work, heart rate); settings: for heart rate / increase in strokework: i.v. infusion; for heart rate: 0.2 and 0.5 nmol/kg/min; for increase in strokework: at a given infusion rate (up to 2.5 nmol/kg/min), 40% set as end point
Excerpt: The rats were exposed to 5% isoflurane in 1:2 N2O:O2 until anesthesia were established.
A catheter was inserted into the left femoral vein for drug administration and a pressure-volume catheter was inserted into the left ventricle via the right carotid artery. After instrumentation, isoflurane was delivered in pure O2 during the experiment.
The horizontal line marks 40% increase in stroke work, which was defined as the maximal increase that should be obtained during the experiment.

human glucagon receptor = target: T1, human glucagon receptor (Homo sapiens, UniProt P47871); assay: cAMP formation in HEK293 cells expressing the human glucagon receptor; assay type: cell-based; settings: 15 min at 37° C., read-out: EC50 (nM) GuR
T1 construct: expressed in transfected cells; host or cells: HEK293
T1 sequence (P47871 26-477): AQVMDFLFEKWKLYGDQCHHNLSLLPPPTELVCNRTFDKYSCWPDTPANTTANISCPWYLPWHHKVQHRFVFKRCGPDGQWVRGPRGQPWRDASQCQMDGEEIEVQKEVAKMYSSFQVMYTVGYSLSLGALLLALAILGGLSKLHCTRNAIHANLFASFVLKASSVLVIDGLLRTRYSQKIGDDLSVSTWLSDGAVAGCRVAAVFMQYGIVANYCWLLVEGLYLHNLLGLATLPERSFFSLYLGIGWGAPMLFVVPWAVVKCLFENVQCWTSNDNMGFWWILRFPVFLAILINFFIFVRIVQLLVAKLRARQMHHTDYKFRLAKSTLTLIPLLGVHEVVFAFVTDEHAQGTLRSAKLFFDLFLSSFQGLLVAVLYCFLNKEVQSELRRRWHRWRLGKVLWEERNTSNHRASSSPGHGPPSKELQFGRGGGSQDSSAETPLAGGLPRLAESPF
Excerpt: (§1) Similarly, activation of the GLP-1 receptor by a GLP-1 agonist will stimulate cellular cAMP formation. Thus, production of cAMP in suitable cells expressing one of these two receptors can be used to monitor the relevant receptor activity.
(§2) The skilled person will be aware of suitable assay formats, and examples are provided below. […] (Where sequences of precursor proteins are referred to, it should of course be understood that assays may make use of the mature protein, lacking the signal sequence).
(§3) On the day of analysis, growth medium was removed and the cells washed once with 200 μl Tyrode buffer. Cells were incubated in […] containing increasing concentrations of test peptides, 100 μM IBMX, and 6 mM glucose for 15 min at 37° C. The reaction was stopped by addition of 25 μl 0.5 M HCl and incubated on ice for 60 min. The cAMP content was estimated using the FlashPlate® cAMP kit from Perkin-Elmer. EC50 values were estimated by computer aided curve fitting.

human GLP-1R = target: T2, human GLP-1R (Homo sapiens, UniProt P43220); assay: cAMP formation in HEK293 cells expressing human GLP-1R; assay type: cell-based; settings: 15 min at 37° C.
T2 construct: expressed in transfected cells; host or cells: HEK293
T2 sequence (P43220 24-463): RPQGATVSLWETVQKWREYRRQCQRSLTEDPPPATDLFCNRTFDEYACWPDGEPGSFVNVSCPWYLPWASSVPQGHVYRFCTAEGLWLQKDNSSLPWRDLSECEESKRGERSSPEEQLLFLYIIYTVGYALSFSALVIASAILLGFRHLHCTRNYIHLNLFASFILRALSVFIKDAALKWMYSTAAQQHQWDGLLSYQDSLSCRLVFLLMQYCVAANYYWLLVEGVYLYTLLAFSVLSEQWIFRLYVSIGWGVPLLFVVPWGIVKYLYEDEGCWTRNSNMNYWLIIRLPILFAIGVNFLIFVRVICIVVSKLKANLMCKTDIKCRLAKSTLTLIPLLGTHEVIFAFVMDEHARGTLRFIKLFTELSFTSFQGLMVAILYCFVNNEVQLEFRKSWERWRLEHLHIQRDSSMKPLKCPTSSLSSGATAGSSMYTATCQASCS
Excerpt: as §1, §2, §3

[2] = tested on: isolated working hearts from control and insulin-resistant JCR:LA-cp rats; assay: Inotropic effect and energy state in isolated working heart model; parameters: species or system rat; settings: compared with vehicle perfused hearts
Method: Following perfusions, high energy phosphate nucleotide concentrations were measured by high performance liquid chromatography (HPLC) (Ally, A and Park, G. Rapid determination of creatine, phosphocreatine, purine bases and nucleotides (ATP, ADP, AMP, GTP, GDP) in heart biopsies by gradient ion-pair reversed-phase liquid chromatography. Journal of Chromatography. 1992; 575: 19-27).

Row | Compound | EC50 (human glucagon receptor) [nM] | EC50 (human GLP-1R) [nM] | further results
1 | CC[C@H](C)[C@H](NC(=O)[C@H](Cc1ccccc1)NC(=O)[C@H](CC(=O)O)NC(=O)[C@H](CCCCN)NC(=O)[C@H](C)NC(=O)[C@H](CCCNC(=N)N)NC(=O)[C@H](CCCNC(=N)N)NC(=O)[C@H](CCC(=O)O)NC(=O)[C@H](CC(=O)O)NC(=O)[C@H](CC(C)C)NC(=O)[C@H](Cc1ccc(O)cc1)NC(=O)[C@H](CCCCN)NC(=O)[C@H](CO)NC(=O)[C@H](Cc1ccc(O)cc1)NC(=O)[C@H](CC(=O)O)NC(=O)[C@H](CO)NC(=O)[C@@H](NC(=O)[C@H](Cc1ccccc1)NC(=O)[C@@H](NC(=O)CNC(=O)[C@H](CCC(N)=O)NC(=O)[C@H](CO)NC(=O)[C@@H](N)Cc1c[nH]cn1)[C@@H](C)O)[C@@H](C)O)C(=O)N[C@@H](CCC(=O)O)C(=O)N[C@@H](Cc1c[nH]c2ccccc12)C(=O)N[C@@H](CC(C)C)C(=O)N[C@@H](CC(C)C)C(=O)N[C@@H](CO)C(=O)N[C@@H](C)C(N)=O [Compound 35] | – | – | heart rate [1]: tendency
2 | CCCCCCCCCCCCCCCC(=O)N[C@@H](CCC(=O)NCCCC[C@H](NC(=O)[C@H](CO)NC(=O)[C@H](CC(=O)O)NC(=O)[C@H](CC(C)C)NC(=O)[C@H](Cc1ccc(O)cc1)NC(=O)[C@H](CCCCN)NC(=O)[C@H](CO)NC(=O)[C@H](Cc1ccc(O)cc1)NC(=O)[C@H](CC(=O)O)NC(=O)[C@H](CO)NC(=O)[C@@H](NC(=O)[C@H](Cc1ccccc1)NC(=O)[C@@H](NC(=O)CNC(=O)[C@H](CCC(N)=O)NC(=O)C(C)(C)NC(=O)[C@@H](N)Cc1c[nH]cn1)[C@@H](C)O)[C@@H](C)O)C(=O)N[C@@H](C)C(=O)N[C@@H](C)C(=O)N[C@@H](Cc1c[nH]cn1)C(=O)N[C@@H](CC(=O)O)C(=O)N[C@@H](Cc1ccccc1)C(=O)N[C@H](C(=O)N[C@@H](CCC(=O)O)C(=O)N[C@@H](Cc1c[nH]c2ccccc12)C(=O)N[C@@H](CC(C)C)C(=O)N[C@@H](CC(C)C)C(=O)N[C@@H](CCCNC(=N)N)C(=O)N[C@@H](C)C(N)=O)C(C)C)C(=O)O [Compound 206] (H-H[Aib]QGTFTSDYSKYLDSK([γGlu-Palmitoyl])AAHDFVEWLLRA-NH2) | 0.16 | 0.09 | duration of strokework increase ([1]; after end of compound infusion, during final vehicle infusion): prolonged increase in strokework that outlasted the compound infusion; increase in strokework [1]: 40%
3 | H-HSQGTFTSDYSKYLDRARADDFVAWLKST-NH2 [Compound 12] | – | – | energetic state of the hearts [2]: not significantly different from vehicle perfused hearts
4 | H-HSQGTFTSDYSKYLDSRHAQDFVWLMNT-NH2 [Compound 244] | 0.05 | 0.5 | –
5 | HSQGTFTSDYSKYLDRARADDFVAWLERA [Compound 9] | – | – | increase in strokework [1]: 40%
6 | HSQGTFTSDYSKYLDSKAARDFVRWLKLA-NH2 [Compound 37] | – | – | heart rate [1]: tendency

The next lines start with results.

Row | EC50 (human glucagon receptor) [nM] | EC50 (human GLP-1R) [nM] | Compound | further results
7 | 0.1 | 0.2 | CC(C)C[C@H](NC(=O)[C@H](Cc1ccc(O)cc1)NC(=O)[C@H](CCCCN)NC(=O)[C@H](CO)NC(=O)[C@H](Cc1ccc(O)cc1)NC(=O)[C@H](CC(=O)O)NC(=O)[C@H](CO)NC(=O)[C@@H](NC(=O)[C@H](Cc1ccccc1)NC(=O)[C@@H](NC(=O)CNC(=O)[C@H](CCC(N)=O)NC(=O)[C@H](CO)NC(=O)[C@@H](N)Cc1c[nH]cn1)[C@@H](C)O)[C@@H](C)O)C(=O)N[C@@H](CC(=O)O)C(=O)N[C@@H](CO)C(=O)N[C@@H](CCCNC(=N)N)C(=O)N[C@@H](CCCNC(=N)N)C(=O)N[C@@H](C)C(=O)N[C@@H](CCC(N)=O)C(=O)N[C@@H](CC(=O)O)C(=O)N[C@@H](Cc1ccccc1)C(=O)N[C@H](C(=O)N[C@@H](Cc1c[nH]c2ccccc12)C(=O)N[C@@H](CC(C)C)C(=O)N[C@@H](CCC(=O)O)C(=O)N[C@@H](CCCNC(=N)N)C(=O)N[C@@H](C)C(N)=O)C(C)C [Compound 251] | –
8 | 0.07 | 0.03 | CC(C)C[C@@H]1NC(=O)[C@H](CC(C)C)NC(=O)[C@H](Cc2c[nH]c3ccccc23)NC(=O)[C@@H](NC(=O)[C@@H](NC(=O)[C@H](Cc2ccccc2)NC(=O)[C@H](CC(=O)O)NC(=O)[C@H](Cc2c[nH]cn2)NC(=O)[C@H](C)NC(=O)[C@H](C)NC(=O)[C@H](CCCCN)NC(=O)[C@H](CO)NC(=O)[C@H](CC(=O)O)NC(=O)[C@H](CC(C)C)NC(=O)[C@H](Cc2ccc(O)cc2)NC(=O)[C@H](CCCCN)NC(=O)[C@H](CO)NC(=O)[C@H](Cc2ccc(O)cc2)NC(=O)[C@H](CC(=O)O)NC(=O)[C@H](CO)NC(=O)[C@@H](NC(=O)[C@H](Cc2ccccc2)NC(=O)[C@@H](NC(=O)CNC(=O)[C@H](CCC(N)=O)NC(=O)[C@H](CO)NC(=O)[C@@H](N)Cc2c[nH]cn2)[C@@H](C)O)[C@@H](C)O)C(C)C)CCC(=O)NCCCC[C@@H](C(=O)N[C@@H](C)C(N)=O)NC1=O [Compound 261] (H-HSQGTFTSDYSKYLDSKAAHDFVEWLLKA-NH2; lactam 24-28) | –
9 | 0.16 | 0.1 | CCCCCCCCCCCCCCCC(=O)N[C@@H](CCC(=O)NCCCC[C@H](NC(=O)[C@H](CCC(=O)O)NC(=O)[C@H](CC(=O)O)NC(=O)[C@H](CC(C)C)NC(=O)[C@H](Cc1ccc(O)cc1)NC(=O)[C@H](CCCCN)NC(=O)[C@H](CO)NC(=O)[C@H](Cc1ccc(O)cc1)NC(=O)[C@H](CC(=O)O)NC(=O)[C@H](CO)NC(=O)[C@@H](NC(=O)[C@H](Cc1ccccc1)NC(=O)[C@@H](NC(=O)CNC(=O)[C@H](CCC(N)=O)NC(=O)C(C)(C)NC(=O)[C@@H](N)Cc1c[nH]cn1)[C@@H](C)O)[C@@H](C)O)C(=O)N[C@@H](CCCNC(=N)N)C(=O)N[C@@H](C)C(=O)N[C@@H](CCCCN)C(=O)N[C@@H](CC(=O)O)C(=O)N[C@@H](Cc1ccccc1)C(=O)N[C@H](C(=O)N[C@@H](CCC(=O)O)C(=O)N[C@@H](Cc1c[nH]c2ccccc12)C(=O)N[C@@H](CC(C)C)C(=O)N[C@@H](CC(C)C)C(=O)N[C@@H](CO)C(=O)N[C@@H](C)C(N)=O)[C@@H](C)CC)C(=O)O [Compound 263] (H-H[Aib]QGTFTSDYSKYLDEK([γGlu-Palmitoyl])RAKDFIEWLLSA-NH2) | –
10 | 0.07 | 0.2 | H-HSQGTFTSDYSKYLDKRRAEDFVWLMNT-NH2 [Compound 256] | –
11 | 0.1 | 0.24 | H-HSQGTFTSDYSKYLDSALAQDFVWLLNT-NH2 [Compound 255] | –
12 | 0.05 | 0.3 | H-HSQGTFTSDYSKYLDSRAAQDFVWLMNT-NH2 [Compound 246] | –
13 | 0.05 | 0.1 | H-HSQGTFTSDYSKYLDSRSAQDFVWLMNT-NH2 [Compound 245] | –
14 | 0.1 | 0.3 | H-HSQGTFTSDYSKYLDSRYAQDFVWLMNT-NH2 [Compound 247] | –
15 | 0.2 | 0.2 | H-HSQGTFTSDYSRYLDSRRAQDFVWLLNK-NH2 [Compound 254] | –
16 | 0.1 | 0.2 | H-HSQGTFTSDYSRYLDSRRAQDFVWLLNT-NH2 [Compound 253] | –
